Experimental data as given in patent publication US20260258035A1, “FIVE-MEMBERED AND SIX-MEMBERED NITROGEN-CONTAINING COMPOUND, AND INTERMEDIATE, PREPARATION METHOD AND USE THEREOF” (HANGZHOU SYNRX THERAPEUTICS BIOMEDICAL TECHNOLOGY CO., LTD., priority 2022, published 2026).
In brackets after ≈: the same amount, converted by molar mass. Read-outs that look alike come from different tables or passages of the source.

What was measured:
PARG = PARG (Homo sapiens, UniProt Q86W56); assay: Biochemical assay (PARG, TFMU-ADPr substrate)
Chain of PARG (Q86W56 whole entry): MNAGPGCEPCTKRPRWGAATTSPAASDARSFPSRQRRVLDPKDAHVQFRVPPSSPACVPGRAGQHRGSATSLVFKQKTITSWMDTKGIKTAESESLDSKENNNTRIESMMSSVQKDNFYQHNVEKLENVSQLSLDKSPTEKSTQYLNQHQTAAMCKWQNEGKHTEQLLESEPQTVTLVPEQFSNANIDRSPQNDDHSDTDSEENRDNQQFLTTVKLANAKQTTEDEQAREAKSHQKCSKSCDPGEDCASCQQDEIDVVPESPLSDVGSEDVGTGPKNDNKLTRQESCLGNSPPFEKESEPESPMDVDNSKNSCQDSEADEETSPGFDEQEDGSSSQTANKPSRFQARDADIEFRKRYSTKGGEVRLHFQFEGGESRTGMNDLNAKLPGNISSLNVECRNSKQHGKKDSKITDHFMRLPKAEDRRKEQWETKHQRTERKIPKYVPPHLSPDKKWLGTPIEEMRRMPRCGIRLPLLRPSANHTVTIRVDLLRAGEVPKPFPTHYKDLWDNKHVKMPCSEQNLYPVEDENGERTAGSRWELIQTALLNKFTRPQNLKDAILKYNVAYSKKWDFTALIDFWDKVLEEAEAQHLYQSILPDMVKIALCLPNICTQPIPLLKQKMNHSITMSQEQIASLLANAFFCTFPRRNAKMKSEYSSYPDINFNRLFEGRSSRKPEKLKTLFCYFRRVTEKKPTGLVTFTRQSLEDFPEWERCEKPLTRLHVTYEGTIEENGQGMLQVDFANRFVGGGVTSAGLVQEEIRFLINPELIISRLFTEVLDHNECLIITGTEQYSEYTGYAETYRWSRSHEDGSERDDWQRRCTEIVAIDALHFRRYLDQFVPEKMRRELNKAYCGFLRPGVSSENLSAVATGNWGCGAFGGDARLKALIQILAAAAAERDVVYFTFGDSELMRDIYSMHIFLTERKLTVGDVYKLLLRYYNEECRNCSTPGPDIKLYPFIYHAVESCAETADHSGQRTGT

[1] = tested on: Human breast squamous carcinoma cells HCC1806; assay: Cell function assay (In-Cell Western, PAR/pADPr after MMS); format: cell-based; settings: read-out: IC50 (nM) in cell function assay
Method in brief: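 HCC1806 cells adhered 24 h at 37 °C, 5% CO2, then were pretreated 1 h with compound (30000 nM down to 1 nM, plus 0 nM) or DMSO. MMS was then added at 0.5 mM final for 1 h before In-Cell Western detection of PAR/pADPr.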

HCC1806 = assay: Cell viability assay (CellTiter-Glo); format: cell-based, Human; settings: HCC1806, 7 days, CellTiter-Glo, read-out: IC50 (nM) in cell viability assay
[2] = Solubility assay (FaSSGF / FaSSIF); format: physicochemical; settings: kinetic from dmso stock, 2 h at 25° C.
Protocol: 1). Preparation of Solutions:
The FaSSGF solution was prepared as follows: • a) preparation of FaSSGF buffer: dissolve 2.0 g of NaCl as the raw material in about 0.9 L of purified water; • b) adjustment of the pH of the buffer: adjust the pH of the buffer to 1.6 with 1N HCL, and replenish the buffer with purified water to the volume of 1 L; and • c) preparation of FaSSGF solution by addition of FaSSGF powder: add 0.06 g of the FaSSGF powder to about 0.5 L of the buffer, stir until the powder was completely dissolved, and make up for the volume (1 L) with the buffer.
The FaSSIF solution was prepared as follows: • a) preparation of FaSSIF buffer: dissolve 0.42 g of NaOH, 3.44 g of anhydrous NaH2PO4, and 6.19 g of NaCl as raw materials in about 0.9 L of purified water; • b) adjustment the pH of the buffer: adjust the pH of the buffer to 6.5 with 1 N NaOH or 1 N HCL, and replenish the buffer with purified water to the volume of 1 L; and • c) preparation of FaSSIF solution by addition of FaSSIF powder: add 2.24 g of the FaSSIF powder to about 0.5 L of the buffer, stir until the powder was completely dissolved, and make up for the volume (1 L) with the buffer.
2). Preparation of the Solution of Control Compound:
The control compound was weighed and dissolved in DMSO to 10 mM to obtain a stock solution.
3) Preparation of the Solution of Compound to be Tested:
The compound to be tested was formulated into a 10 mM DMSO stock solution.
4) Preparation of Internal Standard Solution:
a) The internal standard was weighed and dissolved in DMSO to 10 mM to obtain an internal standard stock solution (ISTD stock solution).
b) The internal standard stock solution was diluted to 500 nM (Tolbutamide) with an ACN:methano mixture (volume ratio: 1:1) to obtain a quenching solution.
a) The FaSSGF solution at pH 1.6 and the FaSSIF solution at pH 6.5 were pre-warmed; and then, the compound was injected into the buffer.
Once done, the samples were centrifuged at 12,000 rpm for 10 min, and the supernatant was transferred to a new tube. The supernatant was diluted 10-fold and 100-fold with the FaSSGF solution at pH 1.6 or the FaSSIIF solution at pH 6.5. 20 μL of each sample (1×, 10×, 100× and standard curve) was added to 500 μL of the IS solution. The resulting mixture was vortexed vigorously for 1 min and centrifuged at 4,500 rpm for 15 min at 4° C. 150 μL of the supernatant was transferred for LC-MS/MS sample analysis.

PXR = molecular target: T1, PXR (Homo sapiens, UniProt O75469); assay: PXR assay (DPX2 luciferase reporter cells); format: cell-based; settings: 24 h; for PXR Activation @30 uM (% Ctrl): positive control rifampicin
T1 construct: host or cells: DPX2 (HepG2)
T1 sequence (O75469 1-434): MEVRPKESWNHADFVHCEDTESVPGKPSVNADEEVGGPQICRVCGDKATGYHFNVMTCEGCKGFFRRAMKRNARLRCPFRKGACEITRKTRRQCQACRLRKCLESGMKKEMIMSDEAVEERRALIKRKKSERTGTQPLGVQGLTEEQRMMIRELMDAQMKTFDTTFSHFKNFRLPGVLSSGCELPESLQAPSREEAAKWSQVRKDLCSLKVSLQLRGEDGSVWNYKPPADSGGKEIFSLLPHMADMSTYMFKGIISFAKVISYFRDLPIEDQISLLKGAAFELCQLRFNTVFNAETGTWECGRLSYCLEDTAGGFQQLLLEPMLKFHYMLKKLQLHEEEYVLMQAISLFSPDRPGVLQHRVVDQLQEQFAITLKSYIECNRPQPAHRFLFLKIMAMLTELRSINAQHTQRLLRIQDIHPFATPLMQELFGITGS
Protocol: 1) Information of Cell Line
DPX2 (HepG2 cells stably transfected with PXR and luciferase reporter) cells were purchased from Puracyp Inc (Carlsbad, CA).
2) Experimental Procedures a) Reagents and Consumables
The DPX2 cells were cultured in the growth medium containing 1000 fetal bovine serum. The DPX2 cells in a T-75 flask were cultured in the […] incubator at 37° C. with 950% relative humidity, and digested when the cells grew to cover 80-90% of the bottom of the flask.
The surface layer of the T-75 cultured cells was washed with 10 mL of PBS; PBS was pipetted; 3-5 mL of tryp sin was added; the cells were digested at 37° C. for 5 minutes or until the cells were digested to be suspended; and excessive medium containing fetal bovine serum was added to stop trypsinization. The cell suspension was transferred to a conical-bottomed centrifuge tube and centrifuged at 150 g rpm for 5 minutes at room temperature; the supernatant was carefully pipetted; and the cells were resuspended with the treatment medium, with the concentration adjusted to 3.2×10^5 cells/mL (incubation time: 24 hours, plate seeding density: […]). 25 μL of the cell suspension was added to each well of the 384-well cell culture plate.
The cell culture plate was placed and cultured for 24 h in the […] incubator with 9500 humidity at 37° C. c) Formulation of Compound
The stock solution of each of 1000× test compound, the positive control (rifampicin), and the negative control (propranolol) was prepared with DMSO. The final concentrations of the positive control (rifampicin) were 1 μM and 10 μM, and the final concentration of the negative control (propranolol) was 10 μM. The final concentrations of the test compound were 10 μM, 1 μM, 0.1 μM, or EC50 (30 μM, 10 μM, 3 μM, 1 μM, 0.3 μM, 0.1 μM). The final concentration of DMSO was 0.10. The cell culture plate was taken out from the incubator, and 25 nL of the stock solution of the positive control, negative control or test compound was directly added with Echo, each with three parallel concentrations. The cell culture plate was placed in the incubator and continued to be incubated for 24 h. Before starting the assay with the substrate, the cell morphology and the monolayer integrity were checked to ensure that the monolayer was of acceptable research quality. […]
d) Quantitative Detection with PXR Activation
After 24 hours of dosing, the culture could be quantitatively detected with PXR activation. The CellTiter-Fluor™ Cell Viability Assay Kit and One-Glo Luciferase reagent were equilibrated to room temperature. The GF-AFC substrate (10 μL) was added to the assay buffer (10 ml) to develop a 2× reagent, which was then diluted into a 1× reagent with 10 ml of PBS. The ONE-Glo Luciferase substrate was added to the ONE-Glo Luciferase assay buffer. The culture plate was taken out from the incubator; the medium was discarded; 1× of CellTiter-Fluor™ reagent was poured into the loading slot; 25 μL of reagent were added per well to the culture plate with a pipetting workstation; and the culture plate was then incubated in the incubator for 30 minutes. The cell culture plate was taken out from the incubator, and cooled slightly to room temperature; and the fluorescence value was determined with a fully automatic quantitative microplate reader, with the excitation light of 400 nm and the emission light of 505 nm. The ONE-Glo reagent was poured into the loading slot, with 25 μL per well, and the resulting mixture was gently mixed in the plate, and incubated at room temperature for 5 minutes to determine the luminescence value.

[3] = molecular target: PARG (poly ADP-ribonal hydrolase) (Homo sapiens, UniProt Q86W56); assay: Biochemical assay (PARG, TFMU-ADPr substrate); settings: PARG, TFMU-ADPr substrate
Chain of PARG (poly ADP-ribonal hydrolase) (Q86W56 whole entry): as the sequence (Q86W56 whole entry) above

[4] = 4 nM PARG, 66.2 uM TFMU-ADPr, 3 min at room temperature
[5] = HCC1806, In-Cell Western, MMS treatment
[6] = HCC1806, compound 1 h then 0.5 mM MMS 1 h, PAR/pADPr antibody, In-Cell Western
[7] = fassgf or other biorelevant, FaSSGF solution pH 1.6, 100 μM from DMSO stock, read-out: FaSSGF solubility
[8] = FaSSIF solution pH 6.5, 100 μM from DMSO stock, read-out: FaSSIF solubility

| IC50 (PARG; [4]) [nM] | IC50 (PARG; PARG, TFMU-ADPr substrate) [nM] | IC50 [1, 5] [nM] | IC50 [1, 6] [nM] | IC50 (HCC1806) [nM] | IC50 (HCC1806; Homo sapiens, HCC1806, 168 h) [nM] | solubility at 2 h [2, 7] [µM] | solubility at 2 h [2, 8] [µM] | PXR Activation @30 uM (Fold) (PXR) | PXR Activation @30 uM (% Ctrl) (PXR) | IC50 [3] [nM] | Compound |
| --- | --- | --- | --- | --- | --- | --- | --- | --- | --- | --- | --- |
| < 100 | 0.19 | 2.85 | > 1000 | 438 | < 500 | 3.83 (≈ 2.2 µg/mL) | 10 (≈ 5.74 µg/mL) |  |  |  | CC(C)C(=O)N1CCN(c2cc(S(=O)(=O)NC3(CF)COC3)cn3c(-c4nnc(C(F)F)s4)ncc23)CC1 [Example 60, 3-(5-(difluoromethyl)-1,3,4-thiadiazol-2-yl)-N-(3-(fluoromethyl)oxetan-3-yl)-8-(4-isobutyrylpiperazin-1-yl)imidazo[1,5-a]pyridine-6-sulfonamide] |
| < 100 | 1.49 | 2.28 | < 100 |  |  | 81.8 (≈ 47.8 µg/mL) | 140 (≈ 81.9 µg/mL) |  |  |  | C[C@@H]1CN(c2cc(S(=O)(=O)NC3(CF)CC3)cn3c(-c4nnc(C(F)F)s4)nnc23)CCN1C(=O)C1(C)CC1 [Example 120, (R)-3-(5-(difluoromethyl)-1,3,4-thiadiazol-2-yl)-N-(1-(fluoromethyl)cyclopropyl)-8-(3-methyl-4-(1-methylcyclopropane-1-carbonyl)piperazin-1-yl)-[1,2,4]triazolo[4,3-a]pyridine-6-sulfonamide] |
|  |  |  |  |  |  |  |  |  |  | 128 | CC(C)C(=O)N1CCN(c2cc(S(=O)(=O)NC(C)C(F)(F)F)cn3c(-c4nnc(C(F)F)s4)ncc23)CC1 (centres unmarked) [Example 35, 3-(5-(difluoromethyl)-1,3,4-thiadiazol-2-yl)-8-(4-isobutyrylpiperazin-1-yl)-N-(1,1,1-trifluoropropan-2-yl)imidazo[1,5-a]pyridine-6-sulfonamide] |

Further lines, the compound ahead of its results:

| Compound | IC50 (PARG; [4]) [nM] | IC50 (PARG; PARG, TFMU-ADPr substrate) [nM] | IC50 [1, 5] [nM] | IC50 [1, 6] [nM] | IC50 (HCC1806) [nM] | IC50 (HCC1806; Homo sapiens, HCC1806, 168 h) [nM] | solubility at 2 h [2, 7] [µM] | solubility at 2 h [2, 8] [µM] | PXR Activation @30 uM (Fold) (PXR) | PXR Activation @30 uM (% Ctrl) (PXR) | IC50 [3] [nM] |
| --- | --- | --- | --- | --- | --- | --- | --- | --- | --- | --- | --- |
| CC1(O)CCN(c2cc(S(=O)(=O)NC3(CF)CC3)cn3c(-c4nnc(C(F)F)s4)nnc23)CC1 [Example 107, 3-(5-(difluoromethyl)-1,3,4-thiadiazol-2-yl)-N-(1-(fluoromethyl)cyclopropyl)-8-(4-hydroxy-4-methylpiperidin-1-yl)-[1,2,4]triazolo[4,3-a]pyridine-6-sulfonamide] | < 100 | 2.04 | 74 | < 100 | 513 | 500 to 5000 | 15.9 (≈ 8.23 µg/mL) | 24.2 (≈ 12.5 µg/mL) |  |  |  |
| [2H]c1nc(-c2nnc(C(F)F)s2)n2cc(S(=O)(=O)NC3(C)COC3)cc(N3CCN(C(=O)C(C)C)CC3)c12 [Example 159, 3-(5-(difluoromethyl)-1,3,4-thiadiazol-2-yl)-8-(4-isobutyrylpiperazin-1-yl)-N-(3-methyloxetan-3-yl)imidazo[1,5-a]pyridine-6-sulfonamide-1-d] | < 100 | 0.46 | 1.12 | < 100 |  |  | 5.19 (≈ 2.89 µg/mL) | 17.4 (≈ 9.69 µg/mL) |  |  |  |
| N#CC1(NS(=O)(=O)c2cc(N3CCN(C(=O)C4CNC4)CC3)c3cnc(-c4nnc(C(F)(F)F)s4)n3c2)CC1 [Example 251, 8-(4-(azetidine-3-carbonyl)piperazin-1-yl)-N-(1-cyanocyclopropyl)-3-(5-(trifluoromethyl)-1,3,4-thiadiazol-2-yl)imidazo[1,5-a]pyridine-6-sulfonamide] |  | 6.03 |  |  |  | 8780 | 80.6 (≈ 46.9 µg/mL) | 78.1 (≈ 45.4 µg/mL) | 1.5 | 11 |  |
| N#CC1(NS(=O)(=O)c2cc(N3CCN(C(=O)C4CCO4)CC3)c3cnc(-c4nnc(C(F)(F)F)s4)n3c2)CC1 (centres unmarked) [Example 236, N-(1-cyanocyclopropyl)-8-(4-(oxetane-2-carbonyl)piperazin-1-yl)-3-(5-(trifluoromethyl)-1,3,4-thiadiazol-2-yl)imidazo[1,5-a]pyridine-6-sulfonamide] |  | 3.8 |  |  | 1100 |  | 75.7 (≈ 44.1 µg/mL) | 82.6 (≈ 48.1 µg/mL) | 1.5 | 7 |  |
